# Experimental data: patent US20220144854A1, “MACROCYCLIC COMPOUNDS” (ZENO MANAGEMENT, INC., priority 2019, published 2022)
# Test system: NCI-H929 (ATCC CRL-9068) cells
# Assay: NCI-H929 cell proliferation assay (CellTiter-Glo)
# Type: cell-based
# Conditions: 72 h of compound treatment
# Experimental: Cell proliferation was measured using the CellTiter-Glo® Luminescent Cell Viability Assay. The assay involved the addition of a single reagent (CellTiter-Glo® Reagent) directly to cells cultured in serum-supplemented medium.
# Each compound evaluated was prepared as a DMSO stock solution (10 mM). Compounds were tested in duplicate on each plate, with a 10-point serial dilution curve (1:3 dilution). Compound treatment ([…]) was added from the compound dilution plate to the cell plate. The highest compound concentration was 10 μM (final), with a 0.1% final DMSO concentration. Plates were then incubated at 37° C., 5% CO2. After 72 h of compound treatment, cell plates were equilibrated at rt for approximately 30 mins. An equi-volume amount of CellTiter-Glo® Reagent (40 μL) was added to each well. Plates were mixed for 2 mins on an orbital shaker to induce cell lysis and then incubated at rt for 10 mins to stabilize the luminescent signal. Luminescence was recorded using an Envision plate reader according to CellTiter-Glo protocol. IC50 of each compound was calculated using GraphPad Prism by nonlinear regression analysis.
row,IC50 [µM],Compound
1,> 1,"COc1ccc(Cn2nc3c(c2C)-c2c(Cl)ccc4c(c(C(=O)O)n(C)c24)CCCOc2cc(cc4ccccc24)SCc2cc(nn2C(C)C)CSC3)cc1 (single isomer, unassigned) [Example 8A, (Z)-1^6-Chloro-6^1-isopropyl-2^1-(4-methoxybenzyl)-1^1,2^5-dimethyl-1^1H,2^1H,6^1H-10-oxa-4,8-dithia-1(7,3)-indola-2(4,3),6(3,5)-dipyrazola-9(3,1)-naphthalenacyclotridecaphane-1^2-carboxylic acid]"
2,> 1,"Cn1nc2cc1CCc1cc(c3ccccc3c1)OCCCc1c(C(=O)O)n(C)c3c(c(Cl)ccc13)-c1c(nn3c1CCC3)CNC2 [Example 26B, (Z)-1^6-chloro-1^1,6^1-dimethyl-2^5,2^6-dihydro-1^1H,2^4H,6^1H-10-oxa-4-aza-1(7,3)-indola-2(3,2)-pyrrolo[1,2-b]pyrazola-6(3,5)-pyrazola-9(3,1)-naphthalenacyclotridecaphane-1^2-carboxylic acid]"
3,0.1 to 1,"Cn1nc2cc1CCc1cc(c3ccccc3c1)OCCCc1c(C(=O)O)n(C)c3c(c(Cl)ccc13)-c1c(nn3c1CCCC3)CNC2 (single isomer, unassigned) [Example 27A, (Z)-1^6-Chloro-1^1,6^1-dimethyl-2^4,2^5,2^6,2^7-tetrahydro-1^1H,6^1H-10-oxa-4-aza-2(3,2)-pyrazolo[1,5-a]pyridina-1(7,3)-indola-6(3,5)-pyrazola-9(3,1)-naphthalenacyclotridecaphane-1^2-carboxylic acid]"
4,> 1,"Cc1c2c(nn1C)CSCc1cc([nH]n1)CSc1cc(c3ccccc3c1)OCCCc1c(C(=O)O)n(C)c3c-2c(Cl)ccc13 [Example 11A, (Z)-1^6-Chloro-1^1,2^1,2^5-trimethyl-1^1H,2^1H,6^1H-10-oxa-4,8-dithia-1(7,3)-indola-2(4,3),6(3,5)-dipyrazola-9(3,1)-naphthalenacyclotridecaphane-1^2-carboxylic acid]"
5,0.1 to 1,"Cc1c2c(nn1C)CSCc1cc(n(C)n1)CSc1cc(c3cc(Cl)ccc3c1)OCCCc1c(C(=O)O)n(C)c3c-2c(Cl)ccc13 [Example 12A, (Z)-1^6,9^7-Dichloro-1^1,2^1,2^5,6^1-tetramethyl-1^1H,2^1H,6^1H-10-oxa-4,8-dithia-1(7,3)-indola-2(4,3),6(3,5)-dipyrazola-9(3,1)-naphthalenacyclotridecaphane-1^2-carboxylic acid]"
6,0.1 to 1,"COc1ccc(Cn2nc3c(c2C)-c2c(Cl)ccc4c(c(C(=O)O)n(C)c24)CCCOc2cc(cc4ccccc24)SCc2cc(nn2C(C)C)CSC3)cc1 (single isomer, unassigned) [Example 8B, (Z)-1^6-Chloro-6^1-isopropyl-2^1-(4-methoxybenzyl)-1^1,2^5-dimethyl-1^1H,2^1H,6^1H-10-oxa-4,8-dithia-1(7,3)-indola-2(4,3),6(3,5)-dipyrazola-9(3,1)-naphthalenacyclotridecaphane-1^2-carboxylic acid]"
7,> 1,"Cc1c2c(nn1C)CSCc1cc(n(C)n1)CSc1cc(c3ccccc3c1)OCCCc1c(C(=O)O)n(C)c3c-2c(Cl)cc(Cl)c13 [Example 13A, (Z)-1^4,1^6-dichloro-1^1,2^1,2^5,6^1-tetramethyl-1^1H,2^1H,6^1H-10-oxa-4,8-dithia-1(7,3)-indola-2(4,3),6(3,5)-dipyrazola-9(3,1)-naphthalenacyclotridecaphane-1^2-carboxylic acid]"
8,0.1 to 1,"(Z)-1^6-Fluoro-6^1-isobutyl-1^1,2^1,2^3-trimethyl-1^1H,2^1H,6^1H-10-oxa-4,8-dithia-1(7,3)-indola-2(4,5),6(3,5)-dipyrazola-9(3,1)-naphthalenacyclotridecaphane-1^2-carboxylic acid [Example 18B]"
9,> 1,"Cn1nc2cc1CCc1cc(c3ccccc3c1)OCCCc1c(C(=O)O)n(C)c3c(c(Cl)ccc13)-c1c(nn3c1CCCC3)CNC2 (single isomer, unassigned) [Example 27B, (Z)-1^6-Chloro-1^1,6^1-dimethyl-2^4,2^5,2^6,2^7-tetrahydro-1^1H,6^1H-10-oxa-4-aza-2(3,2)-pyrazolo[1,5-a]pyridina-1(7,3)-indola-6(3,5)-pyrazola-9(3,1)-naphthalenacyclotridecaphane-1^2-carboxylic acid]"
10,< 0.1,"Cc1nn(C)c2c1-c1c(Cl)ccc3c(c(C(=O)O)n(C)c13)CCCOc1cc(cc3ccccc13)SCc1cc(nn1C)CSC2 (single isomer, unassigned) [Example 19B, (Z)-1^6-Chloro-1^1,2^1,2^3,6^1-tetramethyl-1^1H,2^1H,6^1H-10-oxa-4,8-dithia-1(7,3)-indola-2(4,5),6(3,5)-dipyrazola-9(3,1)-naphthalenacyclotridecaphane-1^2-carboxylic acid]"
11,> 1,"Cc1nn(C)c2c1-c1c(Cl)ccc3c(c(C(=O)O)n(C)c13)CCCOc1cc(cc3ccccc13)SCc1cc(nn1C)CSC2 (single isomer, unassigned) [Example 19A, (Z)-1^6-Chloro-1^1,2^1,2^3,6^1-tetramethyl-1^1H,2^1H,6^1H-10-oxa-4,8-dithia-1(7,3)-indola-2(4,5),6(3,5)-dipyrazola-9(3,1)-naphthalenacyclotridecaphane-1^2-carboxylic acid]"

row,Compound,IC50 [µM]
1,"(Z)-2^5-(tert-Butoxycarbonyl)-1^6-chloro-1^1,6^1-dimethyl-2^4,2^5,2^6,2^7-tetrahydro-1^1H,6^1H-10-oxa-4,8-dithia-2(3,2)-pyrazolo[1,5-a]pyrazina-1(7,3)-indola-6(3,5)-pyrazola-9(3,1)-naphthalenacyclotridecaphane-1^2-carboxylic acid [Example 22B]",> 1
2,"Cc1nn(C)c2c1-c1c(F)ccc3c(c(C(=O)O)n(C)c13)CCCOc1cc(cc3ccccc13)SCc1cc(nn1CC(C)C)CSC2 (single isomer, unassigned) [Example 17B, (Z)-1^6-Fluoro-6^1-isobutyl-1^1,2^1,2^3-trimethyl-1^1H,2^1H,6^1H-10-oxa-4,8-dithia-1(7,3)-indola-2(4,5),6(3,5)-dipyrazola-9(3,1)-naphthalenacyclotridecaphane-1^2-carboxylic acid]",0.1 to 1
3,"Cc1nn(C)c2c1-c1c(F)ccc3c(c(C(=O)O)n(C)c13)CCCOc1cc(cc3ccccc13)SCc1cc(nn1C(C)C)CSC2 (single isomer, unassigned) [Example 16B, (Z)-1^6-Fluoro-6^1-isopropyl-1^1,2^1,2^3-trimethyl-1^1H,2^1H,6^1H-10-oxa-4,8-dithia-1(7,3)-indola-2(4,5),6(3,5)-dipyrazola-9(3,1)-naphthalenacyclotridecaphane-1^2-carboxylic acid]",> 1
4,"Cc1c2c(nn1C)CSCc1cc(n(C)n1)CSc1cc(c3ccccc3c1)OCCCc1c(C(=O)O)n(C)c3c-2c(F)ccc13 [Example 14B, (Z)-1^6-Fluoro-1^1,2^1,2^5,6^1-tetramethyl-1^1H,2^1H,6^1H-10-oxa-4,8-dithia-1(7,3)-indola-2(4,3),6(3,5)-dipyrazola-9(3,1)-naphthalenacyclotridecaphane-1^2-carboxylic acid]",> 1
5,"(Z)-2^5-(tert-Butoxycarbonyl)-1^6-chloro-1^1,6^1-dimethyl-2^4,2^5,2^6,2^7-tetrahydro-1^1H,6^1H-10-oxa-4,8-dithia-2(3,2)-pyrazolo[1,5-a]pyrazina-1(7,3)-indola-6(3,5)-pyrazola-9(3,1)-naphthalenacyclotridecaphane-1^2-carboxylic acid [Example 22A]",0.1 to 1

# Same assay, conditions: Homo sapiens, NCI-H929, 72 h, 72 h of compound treatment
row,IC50 [µM],Compound
1,0.1 to 1,"CO[C@H]1/C=C/C[C@H](C)[C@@H](C)S(=O)(=O)NC(=O)c2ccc3c(c2)N(C[C@@H]2CC[C@H]21)C[C@@]1(CCCc2cc(Cl)ccc21)CO3 [AMG176, reference compound]"
2,0.1 to 1,Cn1nc2cc1CSc1cc(c3ccccc3c1)OCCCc1c(C(=O)O)n(C)c3c(c(Cl)ccc13)-c1c(nn3c1CCC3)CNC2 [Example 26A]
3,0.1 to 1,"CN1CCn2nc3c(c2C1)-c1c(Cl)ccc2c(c(C(=O)O)n(C)c12)CCCOc1cc(cc2ccccc12)SCc1cc(nn1C)CSC3 [Example 25A, (Z)-1^6-chloro-1^1,2^5,6^1-trimethyl-2^4,2^5,2^6,2^7-tetrahydro-1^1H,6^1H-10-oxa-4,8-dithia-2(3,2)-pyrazolo[1,5-a]pyrazina-1(7,3)-indola-6(3,5)-pyrazola-9(3,1)-naphthalenacyclotridecaphane-1^2-carboxylic acid]"
4,< 0.1,"Cc1c2c(nn1C)CSCc1cc(n(C)n1)CSc1cc(c3ccccc3c1)OCCCc1c(C(=O)O)n(C)c3c-2c(Cl)ccc13 [AZD5991, reference compound]"
5,0.1 to 1,"Cn1nc2cc1CSc1cc(c3ccccc3c1)OCCCc1c(C(=O)O)n(C)c3c(c(Cl)ccc13)-c1c(nn3c1CNCC3)CSC2 [Example 23B, (Z)-1^6-Chloro-1^1,6^1-dimethyl-2^4,2^5,2^6,2^7-tetrahydro-1^1H,6^1H-10-oxa-4,8-dithia-2(3,2)-pyrazolo[1,5-a]pyrazina-1(7,3)-indola-6(3,5)-pyrazola-9(3,1)-naphthalenacyclotridecaphane-1^2-carboxylic acid]"

row,Compound,IC50 [µM]
1,"Cc1[nH]nc2c1-c1c(Cl)ccc3c(c(C(=O)O)n(C)c13)CCCOc1cc(cc3ccccc13)SCc1cc(nn1C(C)C)CSC2 [Example 9B, (Z)-1^6-Chloro-6^1-isopropyl-1^1,2^5-dimethyl-1^1H,2^1H,6^1H-10-oxa-4,8-dithia-1(7,3)-indola-2(4,3),6(3,5)-dipyrazola-9(3,1)-naphthalenacyclotridecaphane-1^2-carboxylic acid]",> 1
